According to PMC3362575, “Synthesis and Biological Evaluation of Phenanthrenes as Cytotoxic Agents with Pharmacophore Modeling and ChemGPS-NP Prediction as Topo II Inhibitors” (PLoS ONE, 2012):
Values after ≈ are worked out from the molar mass of the structure shown. Where two headings read alike, the source gives them in different places.

Experiments:
human topoisomerase IIα = tested on: human topoisomerase IIα; set-up: method as in PMID 15182198; settings: cited from earlier work
HepG2 = assay: MTT cytotoxicity assay, HepG2; format: cell-based, human; settings: Homo sapiens
Protocol: (§1) The cytotoxic assay of 11 naturally occurring and 19 synthesized phenanthrenes was carried out on a diverse set of human liver (HepG2 and Hep3B), oral (Ca9-22), lung (A549) and breast (MEA-MB-231 and MCF7) cancer cell lines, and a human fetal lung fibroblast (MRC-5) cell line (Tables 1 and 2).
(§2) Compounds were tested against human liver (HepG2 and Hep3B), oral (Ca9-22), lung (A549), breast (MEA-MB-231 and MCF7) cancer cell lines, and the human fetal lung fibroblast (MRC-5) cell line using an established colorimetric MTT assay protocol. The absorbance was measured at 550 nm using a microplate reader. The IC50 is the concentration of agent that reduced cell growth by 50% under the experimental conditions.

Hep3B = assay: MTT cytotoxicity assay, Hep3B; format: cell-based, human; settings: Homo sapiens, Hep3B
Protocol: as §1, §2

Ca9-22 = assay: MTT cytotoxicity assay, Ca9-22; format: cell-based, human; settings: Homo sapiens
Protocol: as §1, §2

A549 = assay: MTT cytotoxicity assay, A549; format: cell-based, human; settings: Homo sapiens
Protocol: as §1, §2

MCF-7 = assay: MTT cytotoxicity assay, MCF-7; format: cell-based, human; settings: Homo sapiens; for IC50: MTT; for MCF-7 activity class (from IC50): MCF7, Table S3, read-out: Scale Exptl. (MCF-7 activity class)
Protocol: as §1, §2
The pharmacophore modeling with Catalyst HypoGen was performed via Discovery Studio 2.1 (Accelrys, San Diego, CA, USA). Twenty-nine phenanthrene derivatives were collected from the natural plant, C. arisanensis, and from chemical synthesis (Figure 2). Cytotoxicity against MCF-7 cells was determined by the MTT assay and the concentration (µg/mL) of test compound which inhibited 50% of the cancer cells (IC50) was used in the generation of the pharmacophore model. An IC50 value of >20 µg/mL was defined as 20 µg/mL. All experimental IC50 values spanned about 2–3 orders of magnitude from 0.09 to 20 µg/mL. The 2D/3D structures of compounds were generated using ChemBioOffice 2008 (Cambridge Scientic Computing, Cambridge, Massachusetts, USA) and then optimized in a Dreiding force field. The conformational ensemble of each compound was generated using the best conformational analysis method based on a CHARMM force field with a 20 kcal/mol energy threshold above the global minimum. A maximum limit of 255 conformations was used to cover maximum conformational space. The best 3D arrangements of chemical functionalities should explain the activity variations among the 29 compounds. Thirty runs with different parameters were performed for the best pharmacophore hypothesis. Four chemical features, including hydrogen-bond acceptor (HBA), hydrogen-bond donor (HBD), hydrophobic (HYD), and aromatic ring (AR) features, were also tested during the building of pharmacophore hypotheses (Table S1; Text S1). The best hypotheses were selected via a correlation and a cost analysis in Catalyst HypoGen.

MDA-MB-231 = assay: MTT cytotoxicity assay, MDA-MB-231; format: cell-based, human; settings: Homo sapiens
Protocol: as §1, §2

MRC-5 = assay: MTT cytotoxicity assay, MRC-5 fetal lung fibroblast; format: cell-based, human; settings: Homo sapiens, normal fetal lung fibroblast
Protocol: as §1, §2

human cancer cell lines = assay: MTT cytotoxicity assay, ranges over the cancer cell line panel; format: cell-based; settings: for IC50: Homo sapiens
Protocol: as §1, §2

topoisomerase IIα = molecular target: T1, topoisomerase IIα (Homo sapiens, UniProt P11388); assay: Topoisomerase II DNA cleavage assay (Topo II Drug Screening Kit); format: biochemical; settings: for formation of linear DNA (Topo IIα DNA cleavage complex): pHOT plasmid DNA, topoisomerase IIα
T1 construct: purchased TopoGEN, Inc
T1 sequence (P11388 whole entry): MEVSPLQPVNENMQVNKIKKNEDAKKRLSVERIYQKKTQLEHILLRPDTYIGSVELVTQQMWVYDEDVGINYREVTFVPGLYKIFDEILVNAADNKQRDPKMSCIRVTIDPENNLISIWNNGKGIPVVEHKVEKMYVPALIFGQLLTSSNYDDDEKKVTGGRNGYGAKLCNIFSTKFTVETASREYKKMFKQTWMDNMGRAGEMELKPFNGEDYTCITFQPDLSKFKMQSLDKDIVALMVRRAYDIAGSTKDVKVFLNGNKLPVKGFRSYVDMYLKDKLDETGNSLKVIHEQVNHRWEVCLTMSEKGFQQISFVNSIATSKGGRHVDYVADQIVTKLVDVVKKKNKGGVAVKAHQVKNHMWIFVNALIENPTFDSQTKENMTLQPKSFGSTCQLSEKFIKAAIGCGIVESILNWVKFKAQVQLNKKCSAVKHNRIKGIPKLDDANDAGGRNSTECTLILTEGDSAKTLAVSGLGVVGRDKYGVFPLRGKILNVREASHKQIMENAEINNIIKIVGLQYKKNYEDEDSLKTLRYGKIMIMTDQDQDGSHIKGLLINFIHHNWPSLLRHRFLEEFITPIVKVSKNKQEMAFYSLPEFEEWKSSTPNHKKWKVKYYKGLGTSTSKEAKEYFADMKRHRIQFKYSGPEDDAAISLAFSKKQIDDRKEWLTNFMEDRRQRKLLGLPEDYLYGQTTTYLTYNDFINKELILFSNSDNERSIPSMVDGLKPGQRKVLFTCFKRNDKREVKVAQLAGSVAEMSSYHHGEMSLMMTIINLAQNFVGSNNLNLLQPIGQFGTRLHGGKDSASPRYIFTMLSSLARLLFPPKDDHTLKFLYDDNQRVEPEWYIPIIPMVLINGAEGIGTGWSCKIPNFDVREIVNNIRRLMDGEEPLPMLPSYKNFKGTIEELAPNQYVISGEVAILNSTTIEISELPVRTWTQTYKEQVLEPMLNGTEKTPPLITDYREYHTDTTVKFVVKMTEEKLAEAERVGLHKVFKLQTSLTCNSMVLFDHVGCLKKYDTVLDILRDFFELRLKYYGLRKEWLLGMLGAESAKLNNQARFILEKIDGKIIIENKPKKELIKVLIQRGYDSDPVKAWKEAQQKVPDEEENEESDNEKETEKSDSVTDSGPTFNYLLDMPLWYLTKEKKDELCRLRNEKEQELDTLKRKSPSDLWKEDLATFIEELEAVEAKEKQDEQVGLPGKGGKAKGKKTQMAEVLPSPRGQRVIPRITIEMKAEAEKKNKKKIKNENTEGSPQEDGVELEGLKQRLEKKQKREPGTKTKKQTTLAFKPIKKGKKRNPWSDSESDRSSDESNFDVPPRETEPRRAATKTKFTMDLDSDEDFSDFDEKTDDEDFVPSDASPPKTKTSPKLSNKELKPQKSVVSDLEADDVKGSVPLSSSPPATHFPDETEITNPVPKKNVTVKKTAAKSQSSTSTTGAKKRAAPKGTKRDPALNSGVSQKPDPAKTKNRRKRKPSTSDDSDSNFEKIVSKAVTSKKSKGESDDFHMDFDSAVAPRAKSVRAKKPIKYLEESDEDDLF
Protocol: From the ChemGPS-NP analysis, it seems that the MOA for 3-methoxy-1,4-PQs might processes cytotoxicity as a topoisomerase II inhibitor.
Figure 10 Topoisomerase II DNA cleavage assay. An in vitro assay was used to assess the effect of compounds 6a and 5a on the DNA cleavage activity of human TopoII. Etoposide was the positive control. Control lane: TopoIIα + plasmid DNA. DMSO lane: TopoIIα + plasmid DNA + DMSO.
Topoisomerase II assay was performed by using a Topo II Drug Screening Kit (TopoGEN, Inc.). In brief, 0.1 µg of pHOT plasmid DNA was incubated with 2 units of topoisomerase IIα in 20 µL assay buffer at 37°C for 40 min in the presence of tested compounds (6a, 5a) and control drug, etoposide, respectively. 2 µL of 10% SDS and 2.5 µL of 10 mg/mL proteinase K were added into the reaction sample and then incubated for 30 min at 37°C to digest topoisomerase IIα. The samples were mixed with 2 µL of loading buffer and cleaned up by adding an equal volume of phenol:chloroform:isoamyl alcohol (25∶24∶1) according to the description. The sample was mixed by vortex and centrifuge for 10 sec. An aliquot (10 µL) of the upper aqueous part was analyzed by electrophoresis with 2% agarose gel containing 0.5 µg/mL of ethidium bromide.

[1] = HepG2, Table 2, synthesized phenanthrenes
[2] = Table 2, synthesized phenanthrenes
[3] = Ca9-22, Table 2, synthesized phenanthrenes
[4] = A549, Table 2, synthesized phenanthrenes
[5] = MCF7, Table 2, synthesized phenanthrenes
[6] = MDA-MB-231, Table 2, synthesized phenanthrenes
[7] = MRC5, Table 2, synthesized phenanthrenes
[8] = range over the cancer cell lines tested, read-out: IC50 against various / all human cancer cell lines
[9] = HepG2, range over five cancer cell lines, not including HepG2, read-out: IC50 against five cancer cell lines

SMILES | IC50 (HepG2; [1]) [µg/mL] | IC50 (Hep3B; [2]) [µg/mL] | IC50 (Ca9-22; [3]) [µg/mL] | IC50 (A549; [4]) [µg/mL] | IC50 (MCF-7; [5]) [µg/mL] | MCF-7 activity class (from IC50) (MCF-7) [µg/mL] | IC50 (MDA-MB-231; [6]) [µg/mL] | IC50 (MRC-5; [7]) [µg/mL] | melting point [°C] | IC50 (human cancer cell lines; [8]) [µg/mL] | further results
O=C1C=CC(=O)C=C1 [1,4-benzoquinone] | – | – | – | – | – | – | – | – | – | – | poisoning of human topoisomerase IIα (human topoisomerase IIα): poison human topoisomerase IIα
COc1cc(OC)c2c3c(ccc2c1)C(=O)C=CC3=O [Compound 4b, 5,7-Dimethoxy-1,4-phenanthrenequinone] | 18.64 ± 0.14 (≈ 69.5 µM) | 12.1 ± 0.33 (≈ 45.1 µM) | 3.45 ± 0.03 (≈ 12.9 µM) | > 20 | 15.63 ± 0.01 (≈ 58.3 µM) | 1 to 20 | 7.09 ± 0.01 (≈ 26.4 µM) | > 20 | 121 | – | –
COC1=CC(=O)c2ccc3cc(OC)c(OC)c(OC)c3c2C1=O [Compound 5a, 3,5,6,7-Tetramethoxy-1,4-phenanthrenequinone] | 4.65 ± 0.07 (≈ 14.2 µM) | 4.67 ± 0.81 (≈ 14.2 µM) | 5.99 ± 0.24 (≈ 18.2 µM) | 11 ± 0.44 (≈ 33.6 µM) | 14.3 ± 0.5 (≈ 43.5 µM) | 1 to 20 | > 20 | > 20 | – | – | activity against all human cancer cell lines (human cancer cell lines; all human cancer cell lines): marginal activities; inhibition on Topo IIα (supercoiled DNA instead of relaxed) (topoisomerase IIα; 200 µmol/L): had the similar effect; formation of linear DNA (Topo IIα DNA cleavage complex) (topoisomerase IIα): induced the formation of linear DNA
COc1cc(OC)c2c3c(ccc2c1)C(=O)CC(OC)(OC)C3=O [Compound 5c, 3,3,5,7-tetramethoxy-2,3-dihydro-1,4-phenanthrenequinone] | > 20 | 13.8 ± 0.38 (≈ 41.7 µM) | 9.07 ± 0.09 (≈ 27.5 µM) | 12 ± 2.18 (≈ 36.3 µM) | 11.1 ± 0.02 (≈ 33.6 µM) | 1 to 20 | 19.1 ± 0.43 (≈ 57.9 µM) | > 20 | 179 | – | –
COC1=CC(=O)c2ccc3c(-c4c(OC)c(OC)c(OC)c5c6c(ccc45)C(OC)=CC(=O)C6=O)c(OC)c(OC)c(OC)c3c2C1=O [Compound 5f, 3,5,6,7,1′,5′,6′,7′-octamethoxy-[8,8′]bi-1,4,5′,6′-phenanthrenequinone] | 19.6 ± 0.74 (≈ 30 µM) | 7.88 ± 0.19 (≈ 12 µM) | 4.57 ± 0.03 (≈ 6.98 µM) | > 20 | 14.8 ± 0.21 (≈ 22.6 µM) | 1 to 20 | 4.74 ± 0.02 (≈ 7.24 µM) | > 20 | 268 | – | –
COC1=CC(=O)c2ccc3cc(OC)c(OC)c(O)c3c2C1=O [Compound 6a, 5-Hydroxy-3,6,7-trimethoxy-1,4-phenanthrenequinone] | 0.08 (≈ 0.255 µM) | 0.19 ± 0.01 (≈ 0.605 µM) | 0.59 ± 0.01 (≈ 1.88 µM) | 0.14 ± 0.02 (≈ 0.445 µM) | 0.2 (≈ 0.636 µM) | < 1 | 0.89 ± 0.01 (≈ 2.83 µM) | 0.6 ± 0.05 (≈ 1.91 µM) | – | 0.08 to 1.66 (≈ 0.255 to 5.28 µM) | IC50 (HepG2; HepG2, Table 1, natural phenanthrenes): 0.21 ± 0.01 µg/mL (≈ 0.668 µM); IC50 (Hep3B; Table 1, natural phenanthrenes): 0.22 µg/mL (≈ 0.7 µM); IC50 (Ca9-22; Ca9-22, Table 1, natural phenanthrenes): 0.17 ± 0.01 µg/mL (≈ 0.541 µM); IC50 (A549; A549, Table 1, natural phenanthrenes): 0.11 µg/mL (≈ 0.35 µM); IC50 (MCF-7; MCF7, Table 1, natural phenanthrenes): 0.09 µg/mL (≈ 0.286 µM); IC50 (MDA-MB-231; MDA-MB-231, Table 1, natural phenanthrenes): 0.64 ± 0.06 µg/mL (≈ 2.04 µM); IC50 (MRC-5; MRC5, Table 1, natural phenanthrenes): 0.65 µg/mL (≈ 2.07 µM); fold greater cytotoxic activity than denbinobin (6b) (human cancer cell lines; HepG2, Hep3B, Ca9-22, A549, MEA-MB-231 and MCF7 cancer cell lines): up to 7 fold; inhibition on Topo IIα (supercoiled DNA instead of relaxed) (topoisomerase IIα; 100 µmol/L): showed the inhibition on Topo IIα; formation of linear DNA (Topo IIα DNA cleavage complex) (topoisomerase IIα): induced the formation of linear DNA
COC1=CC(=O)c2ccc3cc(OC)c(OC)c(OC(C)=O)c3c2C1=O [Compound 7a, 5-Acetoxy-3,6,7-trimethoxy-1,4-phenanthrenequinone] | 11.3 ± 0.14 (≈ 31.7 µM) | 0.36 ± 0.14 (≈ 1.01 µM) | 0.84 ± 0.05 (≈ 2.36 µM) | 0.6 ± 0.01 (≈ 1.68 µM) | 0.16 (≈ 0.449 µM) | < 1 | 1.13 ± 0.05 (≈ 3.17 µM) | 1.14 ± 0.01 (≈ 3.2 µM) | – | 0.08 to 1.66 (≈ 0.225 to 4.66 µM) | IC50 (human cancer cell lines; [9]): 0.16 to 1.66 µg/mL (≈ 0.449 to 4.66 µM)
COC1=CC(=O)c2ccc3cc(OC)cc(OC(C)=O)c3c2C1=O [Compound 7b, 5-acetoxy-3,7-dimethoxy-1,4-phenanthrenequinone] | 13.2 ± 0.25 (≈ 40.5 µM) | 0.6 ± 0.11 (≈ 1.84 µM) | 1.55 ± 0.2 (≈ 4.75 µM) | 1.66 ± 0.01 (≈ 5.09 µM) | 0.53 ± 0.03 (≈ 1.62 µM) | < 1 | 1.61 ± 0.04 (≈ 4.93 µM) | 2.64 ± 0.06 (≈ 8.09 µM) | – | 0.08 to 1.66 (≈ 0.245 to 5.09 µM) | IC50 (human cancer cell lines; [9]): 0.16 to 1.66 µg/mL (≈ 0.49 to 5.09 µM)
COc1cc(O)c2c(ccc3c(OC)ccc(OC)c32)c1 [Compound 9b, 5-hydroxy-1,4,7-trimethoxy-phenanthrene] | > 20 | > 20 | > 20 | > 20 | > 20 | > 20 | > 20 | > 20 | 71 | – | –
